Values joined by “and” are separate entries in the source; they are usually repeats but may differ in a detail not shown here. Identical values can stand only once.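 Growth conditions: 96-well plates. Treatment: test compound, 48 hours, 5 concentrations. Analysis: linear interpolation between bracketing concentrations; unreached endpoints set to highest concentration. Here, GI50 denotes the concentration required for 50% inhibition of growth. TGI marks complete inhibition of growth.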

Holding throughout (test): NCI tumour cell line growth inhibition, 48 h
The test system of assay [1] is SK-MEL-2 melanoma.
Assay [2] relates to SN12C renal.
The test system of assay [3] is KM12 colon.
Assay [4] deals with HCT-15 colon.
Assay [5] concerns A498 renal.
In assay [6] the test system is HCT-116 colon.
Assay [7] has as its system IGROV1 ovarian.
The test system of assay [8] is UACC-62 melanoma.
Assay [9] relates to SW-620 colon.
Assay [10] concerns MCF7 breast.

In the case of `O=C(OC1CCC2OOC1O2)c1ccc([N+](=O)[O-])cc1` (stereo unspecified), the TGI in [1], in assay [2], in assay [3], in [4], in [5] and in assay [6] was over 100 µM in each case. For the same compound, the TGI in [7], in assay [8] and in assay [9] was over 100 µM throughout.
In the case of `N#CCCCCCOCCOCCOCCOCCOCCCCCC#N`, the TGI in assay [1], in assay [2], in assay [3], in assay [4], in assay [5] and in [6] was over 100 µM throughout. The TGI in assay [7], in [8] and in [9] was over 100 µM each time.
`O=C(NCc1cccnc1)C1COc2cc(-c3cc(=O)c4ccccc4o3)ccc2O1` (stereo unspecified): the TGI in assay [1] was over 68.7 µM; in assay [2], over 78 µM; in assay [3], over 100 µM; in assay [4] it was over 100 µM; in assay [5] it was 99.7 µM; in assay [6], over 100 µM. The TGI in assay [7], in [8] and in [9] was over 100 µM throughout.
With `COc1cccc(/C=N/NC(=O)c2ccccc2N2CCCC2)c1O`, the GI50 was 54 µM in [1]; 15.5 µM in assay [2]; 38.4 µM in assay [3]; 1.76 µM in assay [4]; 4.97 µM in assay [5]; 3.3 µM in assay [6]. Further, the values for the GI50 in assay [7], in [8] and in assay [9] were 7.05 µM, 3.73 µM and 4.08 µM, respectively. In addition, the TGI in [1], in [2], in assay [3], in assay [4], in assay [5] and in assay [6] was over 100 µM each time. Also, the TGI is over 100 µM in [7], 19.7 µM in assay [8] and over 100 µM in assay [9].
For `CC1(Br)CC2OC3(Br)C=CC(C)(O)C2(CC1=O)C3(C)C` (stereo unspecified), the TGI in [1], in assay [2], in assay [3], in [4], in assay [5] and in assay [6] was over 100 µM in each case. Besides, the TGI in assay [7], in assay [8] and in assay [9] was over 100 µM in each case.
Regarding `CC[C@@]1(O)C(=O)OCc2c1cc1n(c2=O)Cc2cc3cccc([N+](=O)[O-])c3nc2-1`, the GI50 in [1] was 6.11 µM; in assay [2], 0.382 µM; in [3] it was 4.82 µM; in assay [5], 1.43 µM; in assay [6], 1.58 µM; in assay [7], 1.96 µM. Moreover, the GI50 in assay [8] was 0.299 µM. The TGI in assay [1] is 24.8 µM; in assay [2], 5.01 µM; in assay [3] it was 35.6 µM; in assay [5], 5.03 µM; in assay [6], 13.6 µM; in assay [7], 14.9 µM. For the same compound, the TGI in assay [8] was determined as 1.28 µM.
Turning to `CN1CCC2(CC1)NC(=O)c1c(c3ccc(Cl)c(Cl)c3n1C)C2C#N` (stereo unspecified), the GI50 was 2.53 µM in assay [10]; 5.82 µM in assay [2]; 3.84 µM in assay [3]; 3.98 µM in assay [4]; 9.05 µM in [5]; 3.11 µM in [6]. For the same compound, the GI50 in assay [7] was 2.31 µM; in [8], 1.66 µM; in assay [9] it was 8.48 µM. For the same compound, the TGI came out at 8.83 µM in assay [10]; 31.2 µM in assay [2]; 8.55 µM in assay [3]; 15.6 µM in assay [4]; 24.1 µM in assay [5]; 9.17 µM in assay [6]. In addition, the TGI in assay [7] came out at 7.21 µM; in [8], 3.22 µM; in [9], 33.3 µM.
For the compound `[Cl][Hg][c]1ccc(Cl)s1`, the GI50 was 4.65 µM in assay [1]; 2.95 µM in assay [2]; 14.3 µM in assay [3]; 0.397 µM in assay [4]; 17.2 µM in assay [5]; 1.49 µM in [6]. The values for the GI50 in assay [7], in [8] and in [9] were 1.62 µM, 1.57 µM and 1.04 µM, respectively. Also, the TGI turned out to be 17.6 µM in assay [1]; 8.19 µM in assay [2]; 28 µM in assay [3]; 1.72 µM in [4]; 31.2 µM in assay [5]; 2.97 µM in assay [6]. In addition, the TGI in assay [7] was determined as 3.67 µM; in [8], 3.46 µM; in assay [9] it was 2.59 µM.
On to `Cc1ccc(NC(=O)c2cc3ccccc3c(N=Nc3cc(S(=O)(=O)O)ccc3O)c2O)c(C)c1`, for which the TGI in [1] was 78.5 µM; in [2], over 100 µM; in assay [3], 53.9 µM; in [4], over 100 µM; in assay [5] it was over 100 µM; in [6], over 100 µM. Moreover, the TGI in assay [7] was over 100 µM; in assay [8], 83.8 µM; in assay [9] it was over 100 µM.
For the compound `NC1CCCCC1N.O=[Se]([O-])[O-].[Pt+4]` (stereo unspecified), the GI50 was 6 µM in [1]; 1.67 µM in [2]; 2.51 µM in assay [3]; 0.747 µM in assay [4]; 1.76 µM in [5]; 0.236 µM in [6]. The GI50 is 2.11 µM in assay [7], 1.33 µM in assay [8] and 0.0901 µM in [9]. For the same compound, the TGI was 31.1 µM in assay [1]; over 100 µM in assay [2]; over 100 µM in assay [3]; over 45.5 µM in assay [4]; 24.8 µM in assay [5]; over 45.2 µM in [6]. For the same compound, the results for the TGI in [7], in [8] and in [9] were over 46 µM, over 41.8 µM and over 39.9 µM, respectively.
Turning to `COc1ccc(Sc2nc3cc(N)cc(N)c3nc2-c2ccccc2)cc1`, the GI50 in [10] is 16.5 µM; in assay [2] it was over 100 µM; in assay [3], 28.4 µM; in assay [5], over 100 µM; in [6], 14.7 µM; in assay [8], 38 µM. Also, the GI50 in assay [9] was 26.5 µM. Also, the TGI in assay [10], in [2], in assay [3], in assay [5], in assay [6] and in assay [8] was over 100 µM in each case. Besides, the TGI in assay [9] was over 100 µM.
As to `COc1cc(-c2oc3c(OC)cc(OC)c(O)c3c(=O)c2OC)cc(OC)c1OC`, the TGI in assay [10], in [2], in assay [3], in [6], in assay [7] and in assay [8] was over 100 µM each time. This compound yielded a TGI in [9] of over 100 µM.
Take `COC(=O)c1ccccc1N1C(=O)Cc2ccccc2C1=O`: the TGI in assay [1], in assay [2], in assay [3], in assay [4], in assay [7] and in assay [8] was over 100 µM each time. Further, the TGI in assay [9] was over 100 µM.
`Nc1nc(N)c(-c2ccccc2)c(C(=O)Nc2ccccc2)n1`: the TGI in [1], in assay [2], in assay [3], in assay [4], in assay [5] and in assay [6] was over 100 µM each time. For the same compound, the TGI in assay [7], in [8] and in assay [9] was over 100 µM throughout.
Take `CCNC(=O)Nc1ccc(Oc2ccnc3ccc4c(ccn4C)c23)cc1`: the GI50 in assay [1] is 45.8 µM; in [10], 37.9 µM; in assay [2] it was 20.9 µM; in assay [3] it was 37.7 µM; in assay [4], 37.9 µM; in assay [6] it was 21.2 µM. For the same compound, the figures for the GI50 in [7], in [8] and in assay [9] were over 100 µM, 19.5 µM and over 100 µM, respectively. Moreover, the TGI in assay [1] is over 100 µM; in assay [10] it was over 100 µM; in [2], 43.8 µM; in [3] it was over 100 µM; in assay [4] it was over 100 µM; in assay [6], over 100 µM. The figures for the TGI in assay [7], in assay [8] and in assay [9] were over 100 µM, 39.3 µM and over 100 µM, respectively.
In the case of `CN(C)CCCCC(C(=O)CBr)(c1ccccc1)c1ccccc1`, the GI50 is 2.18 µM in [1]; 1.5 µM in assay [10]; 1.98 µM in [2]; 7.57 µM in assay [3]; 1.64 µM in [4]; 3.6 µM in [7]. Further, the GI50 in [8] was 1.64 µM; in assay [9], 1.67 µM. For the same compound, the TGI in assay [1] was 6.02 µM; in assay [10], 3.25 µM; in [2], 5.07 µM; in assay [3], 20.7 µM; in assay [4], 3.37 µM; in assay [7], 15.6 µM. Also, the TGI was determined as 4.14 µM in [8] and 5.58 µM in assay [9].
For `COc1ccc2cc(C(=O)/C=C/c3ccc(N(C)C)cc3)ccc2c1`, the GI50 was 61.6 µM in assay [1]; 83 µM in [10]; over 100 µM in assay [2]; over 100 µM in [3]; 57.3 µM in assay [4]; over 100 µM in assay [6]. Further, the GI50 in assay [7] is 47.8 µM; in [8] it was over 100 µM; in [9], 87.3 µM. Moreover, the TGI in [1], in assay [10], in assay [2], in assay [3], in assay [4] and in assay [6] was over 100 µM each time. Besides, the TGI in assay [7], in assay [8] and in assay [9] was over 100 µM throughout.
Turning to `COc1ccc(NC(=O)CC/C(CC(=O)c2ccco2)=N/NC(N)=S)cc1`, the TGI in assay [1], in assay [2], in [3], in [4], in assay [5] and in [6] was over 100 µM each time. Also, the TGI in assay [7], in assay [8] and in [9] was over 100 µM in each case.
Turning to `CCCCNC(=O)C1C(=O)N(CCCC)C(=O)/C1=N\N` (stereo unspecified), the TGI in [1], in [2], in [3], in assay [4], in [5] and in assay [6] was over 100 µM each time. The TGI in [7], in [8] and in assay [9] was over 100 µM in each case.
For the compound `CCOC(=O)C(N=C(c1ccccc1)c1ccccc1)N(C(=O)OC(C)(C)C)C(=O)OC(C)(C)C` (stereo unspecified), the TGI in assay [1], in assay [2], in assay [3], in assay [4], in assay [6] and in [7] was over 100 µM in each case. Moreover, the TGI in assay [8] and in [9] was over 100 µM in each case.
With `COc1cc2c(cc1OC)CC(=O)Nc1cc(OC)c(OC)cc1CC2`, the TGI in assay [1], in [2], in [3], in assay [4], in assay [5] and in assay [6] was over 100 µM throughout. Further, the TGI in assay [7], in assay [8] and in [9] was over 100 µM each time.
Turning to `Nc1nc(Cl)cc(NCC(O)CO)n1` (stereo unspecified), the TGI in assay [1], in assay [2], in assay [3], in [4], in assay [5] and in assay [6] was over 100 µM throughout. Besides, the TGI in assay [7], in [8] and in assay [9] was over 100 µM each time.
Turning to `COc1cc2c(c(OC)c1OC)-c1ccc(OC)c(=O)cc1[C@@H](NC(C)=O)CC2`, the GI50 is 0.48 µM in assay [1]; < 0.01 µM and 0.00342 µM and < 0.0114 µM in assay [10]; < 0.01 µM and 0.0625 µM in assay [6]. In addition, the TGI was > 100 µM and > 93.4 µM and 131 µM in assay [2]; > 100 µM and 25.8 µM and 50.4 µM in [4]; over 100 µM in assay [7]; > 100 µM and > 77.4 µM and 91.7 µM in assay [8]; over 394 µM in [9].
For `CCC(O)C1Cc2c(C)cc3c(c2O1)C(=O)c1ccccc1C3=O` (stereo unspecified), the TGI in [1] was over 100 µM; in [2], over 100 µM; in [3] it was over 100 µM; in assay [4] it was over 100 µM; in assay [5] it was 70.3 µM; in assay [6], over 100 µM. Besides, the TGI in assay [7], in assay [8] and in assay [9] was over 100 µM throughout.

The record behind these values is PubChem BioAssay (NCI).
